From BindingDB's records for doi:10.1016/j.bmcl.2006.01.017 (Celera, 2006)

Assays:
[1] = molecular target: T1, Coagulation factor VII (Homo sapiens, UniProt P08709); assay: Enzyme Inhibition Assay; details: pH 7.4; 22 °C
T1 sequence (P08709 whole entry): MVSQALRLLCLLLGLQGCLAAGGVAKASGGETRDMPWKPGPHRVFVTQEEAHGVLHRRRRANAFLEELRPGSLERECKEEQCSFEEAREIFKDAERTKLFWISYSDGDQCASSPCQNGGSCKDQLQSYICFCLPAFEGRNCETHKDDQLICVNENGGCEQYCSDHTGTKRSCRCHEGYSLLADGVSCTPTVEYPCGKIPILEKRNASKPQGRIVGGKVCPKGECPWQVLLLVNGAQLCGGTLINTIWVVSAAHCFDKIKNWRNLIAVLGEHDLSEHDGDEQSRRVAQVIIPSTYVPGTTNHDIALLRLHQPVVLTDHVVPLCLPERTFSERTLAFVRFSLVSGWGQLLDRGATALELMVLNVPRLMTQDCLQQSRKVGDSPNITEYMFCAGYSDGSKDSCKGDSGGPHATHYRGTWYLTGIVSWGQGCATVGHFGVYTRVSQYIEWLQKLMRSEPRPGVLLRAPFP
Procedure: (§1) The apparent Ki values were then calculated according to the Cheng-Prusoff equation: Ki = IC50/1 + [S]/Km.

[2] = molecular target: T2, Serine protease 1 (Bos taurus, UniProt P00760); assay: Enzyme Inhibition Assay; details: pH 7.4; 22 °C
T2 sequence (P00760 whole entry): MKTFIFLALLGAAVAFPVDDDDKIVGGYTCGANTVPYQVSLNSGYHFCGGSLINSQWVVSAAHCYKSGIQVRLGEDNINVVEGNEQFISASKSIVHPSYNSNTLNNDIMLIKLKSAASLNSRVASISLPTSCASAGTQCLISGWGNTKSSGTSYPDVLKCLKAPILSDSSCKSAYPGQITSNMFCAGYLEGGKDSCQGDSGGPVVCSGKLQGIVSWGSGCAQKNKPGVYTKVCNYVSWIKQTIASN
Procedure: as §1

Row | Compound | Ki [1] | Ki [2]
1 | CN(C)CCNC(=O)NCc1cccc(-c2cc(CC(=O)O)cc(-c3cc4nc(N)ccc4[nH]3)c2O)c1 [2-(3-{5-amino-1H-pyrrolo[3,2-b]pyridin-2-yl}-5-{3-[({[2-(dimethylamino)ethyl]carbamoyl}amino)methyl]phenyl}-4-hydroxyphenyl)acetic acid] | 1.4 µM | 
2 | Nc1ccc2[nH]c(-c3cc(CC(=O)O)cc(-c4cccc([N+](=O)[O-])c4)c3O)nc2n1 [2-(3-{5-amino-1H-imidazo[4,5-b]pyridin-2-yl}-4-hydroxy-5-(3-nitrophenyl)phenyl)acetic acid] |  | > 150 µM
3 | NC(=O)Nc1cccc(-c2cc(CC(=O)O)cc(-c3cc4nc(N)ccc4[nH]3)c2O)c1 [2-(3-{5-amino-1H-pyrrolo[3,2-b]pyridin-2-yl}-5-[3-(carbamoylamino)phenyl]-4-hydroxyphenyl)acetic acid] | 12 µM | 
4 | CS(=O)(=O)c1cccc(-c2cc(CC(=O)O)cc(-c3cc4nc(N)ccc4[nH]3)c2O)c1 [2-(3-{5-amino-1H-pyrrolo[3,2-b]pyridin-2-yl}-4-hydroxy-5-(3-methanesulfonylphenyl)phenyl)acetic acid] | 7.4 µM | 
5 | O=C(O)Cc1cc(-c2cccc([N+](=O)[O-])c2)c(O)c(-c2nc3ccccc3[nH]2)c1 [2-[3-(1H-1,3-benzodiazol-2-yl)-4-hydroxy-5-(3-nitrophenyl)phenyl]acetic acid] |  | > 150 µM
